Key:
Experiment in all cases: relative viability (nuclei count vs DMSO), 5 days (fraction); higher = more cells survive
[1] = compound: CS(=O)(=O)c1ccc(C(=O)Nc2ccc(Cl)c(-c3ccccn3)c2)c(Cl)c1 [Vismodegib] + CCNC(=O)c1noc(-c2cc(C(C)C)c(O)cc2O)c1-c1ccc(CN2CCOCC2)cc1 [Luminespib] (partner 0.01 µM)
How it was run: (§1)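 One day after seeding in 1536-well plates, lung cancer cell lines were dosed by pin tool. Dosing was either single-drug or a fixed anchor-drug dose plus five library-drug doses (not always all listed) in √10 steps. After 5 days, nuclei were stained in one fix-and-stain step and counted on 4× images, and relative viability is the nuclei count of treated wells over that of vehicle wells, given as the median of duplicate plates.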

[2] = compound: N#CC[C@H](C1CCCC1)n1cc(-c2ncnc3[nH]ccc23)cn1 [Ruxolitinib] + CCNC(=O)c1noc(-c2cc(C(C)C)c(O)cc2O)c1-c1ccc(CN2CCOCC2)cc1 [Luminespib] (partner 0.01 µM)
How it was run: as §1

[3] = compound: N#CC[C@H](C1CCCC1)n1cc(-c2ncnc3[nH]ccc23)cn1 [Ruxolitinib] + C[C@@H](Oc1cc(-c2cnn(C3CCNCC3)c2)cnc1N)c1c(Cl)ccc(F)c1Cl [Crizotinib] (partner 1 µM)
How it was run: as §1

[4] = compound: N#CC[C@H](C1CCCC1)n1cc(-c2ncnc3[nH]ccc23)cn1 [Ruxolitinib] + N=C(N)NC(=N)NCCc1ccccc1 [Phenformin] (partner 250 µM)
How it was run: as §1

Cell Line | relative viability ([1]; first compound 0.08 µM) | relative viability ([1]; first compound 0.253 µM) | relative viability ([1]; first compound 0.8 µM) | relative viability ([1]; first compound 2.53 µM) | relative viability ([1]; first compound 8 µM) | relative viability ([2]; first compound 0.08 µM) | relative viability ([2]; first compound 0.253 µM) | relative viability ([2]; first compound 0.8 µM) | relative viability ([2]; first compound 2.53 µM) | relative viability ([2]; first compound 8 µM) | relative viability ([3]; first compound 0.08 µM) | relative viability ([3]; first compound 0.253 µM) | relative viability ([3]; first compound 0.8 µM) | relative viability ([3]; first compound 2.53 µM) | relative viability ([3]; first compound 8 µM) | relative viability ([4]; first compound 0.08 µM) | relative viability ([4]; first compound 0.253 µM) | relative viability ([4]; first compound 0.8 µM) | relative viability ([4]; first compound 2.53 µM) | relative viability ([4]; first compound 8 µM)
EMC-BAC-2 | 1.14 | 1.07 | 1.22 | 1.12 | 1.21 | 1.09 | 1.16 | 1.15 | 1.04 | 0.947 | 0.801 | 0.782 | 0.85 | 0.68 | 0.445 | 0.534 | 0.471 | 0.555 | 0.44 | 0.353
NCI-H2009 | 0.873 | 0.968 | 1.03 | 1.01 | 1.04 | 0.99 | 1.1 | 0.99 | 0.93 | 0.817 | 1.1 | 0.996 | 1.12 | 0.769 | 0.832 | 0.414 | 0.443 | 0.535 | 0.423 | 0.297
NCI-H460 | 0.0373 | 0.0299 | 0.038 | 0.0291 | 0.0297 | 0.0343 | 0.0362 | 0.0405 | 0.0294 | 0.027 | 0.985 | 1.02 | 1.01 | 0.803 | 0.447 | 0.484 | 0.54 | 0.549 | 0.443 | 0.445
ABC-1 | 0.577 | 0.381 | 0.551 | 0.672 | 0.405 |  | 0.736 | 0.987 | 0.509 | 0.437 | 1.12 | 1.02 | 1.22 | 0.992 | 1.26 |  | 0.282 | 0.316 | 0.287 | 0.294
201T | 1.02 | 1 | 1.07 | 1.11 | 0.968 | 1.1 | 1.22 | 1.24 | 1.17 | 1.18 | 1.02 | 1.11 | 1.19 | 1.29 | 1.18 | 0.44 | 0.455 | 0.473 | 0.429 | 0.503
NCI-H1993 | 0.799 | 0.865 | 0.747 | 0.814 | 0.796 | 0.758 | 0.784 | 0.863 | 0.508 | 0.803 | 0.785 | 0.801 | 0.873 | 0.61 | 0.935 | 0.497 | 0.526 | 0.473 | 0.572 | 0.51
RERF-LC-KJ | 1.18 | 1.21 | 1.16 | 1.24 | 1.22 | 1.21 | 1.31 | 1.4 | 1.21 | 0.919 | 0.863 | 0.868 | 0.864 | 0.827 | 0.687 | 0.349 | 0.418 | 0.426 | 0.42 | 0.332
NCI-H1755 | 0.403 | 0.327 | 0.39 | 0.366 | 0.461 | 0.452 | 0.45 | 0.699 | 0.351 | 0.362 | 0.87 | 0.897 | 0.887 | 0.784 | 0.476 | 0.613 | 0.586 | 0.575 | 0.527 | 0.526
NCI-H1666 | 0.985 | 0.986 | 1.15 | 0.999 | 1.06 | 1 | 1.1 | 1.05 | 1.01 | 0.972 | 1.03 | 0.974 | 0.986 | 0.878 | 0.909 | 0.606 | 0.538 | 0.519 | 0.564 | 0.512
NCI-H2085 | 0.393 | 0.441 | 0.423 | 0.434 | 0.474 | 0.418 | 0.48 | 0.486 | 0.403 | 0.352 | 0.844 | 0.921 | 0.857 | 0.784 | 0.711 | 0.758 | 0.774 | 0.831 | 0.627 | 0.642
BEN | 0.363 | 0.293 | 0.475 | 0.244 | 0.326 | 0.339 | 0.64 | 0.519 | 0.377 | 0.33 | 0.832 | 1.01 | 1.07 | 0.735 | 0.95 | 0.232 | 0.281 | 0.244 | 0.239 | 0.255
NCI-H661 | 0.945 | 0.909 | 0.934 | 0.876 | 0.889 | 0.892 | 1.01 | 0.93 | 0.94 | 0.768 | 0.941 | 1.02 | 0.941 |  | 0.841 | 0.287 | 0.256 | 0.303 | 0.29 | 0.263
LCLC-97TM1 | 0.699 | 0.725 | 0.746 | 0.76 | 0.826 | 0.617 | 0.657 | 0.78 | 0.626 | 0.904 | 0.361 | 0.393 | 0.487 | 0.472 | 0.275 | 0.438 | 0.43 | 0.507 | 0.428 | 0.378
HCC-827 | 0.658 | 0.762 | 0.691 | 0.589 | 0.733 |  | 0.578 | 0.679 | 0.519 | 0.562 |  | 0.878 | 0.734 | 0.856 | 0.826 |  | 0.35 | 0.32 | 0.304 | 0.411
NCI-H596 | 1.04 | 0.96 | 1.15 | 1.05 | 1.02 | 1.03 | 0.889 | 1.4 | 1.17 | 1 | 0.994 | 0.98 | 1.19 | 0.919 | 0.912 | 0.975 | 0.793 | 0.801 | 0.706 | 0.836

Reference: the supplement of paper PMC10307832
